# In patent publication US20100311726A1, “REDUCTION OF BETA-AMYLOID LEVELS BY TREATMENT WITH THE SMALL MOLECULE DIFFERENTIATION-INDUCING FACTOR” (priority 2007, published 2010):
# “Also recorded” adds a separate entry of the source.
# Columns and labels:
# CHO cells = experiment: Cell proliferation assay (haemocytometer counts); type: cell-based, Chinese Hamster
# Description: For proliferation assays, 1×10^4 cells were deposited into 24-well plates and treated with vehicle (ethanol or DMSO) or with various amounts of DIF-1 or DIF-3 for a period of 4 days. Cells were harvested after each day by trypsin/EDTA treatment, stained with an equal volume of 0.05% Trypan blue and enumerated in triplicate twice using a haemocytometer. Dead cells are stained blue, but live cells with intact cell membranes are not coloured. Data represents the mean cell number±the standard deviation for at least 3 separate experiments.
# We therefore assessed the dose-dependent anti-proliferative effect of DIF-1 on normal (non-transformed) CHO cells (FIG. 1A). Briefly, CHO cells were seeded on a 6-well plate (10,000 cells/well) and were incubated with 25 μM DIF-1. Cells were harvested by the trypsin/EDTA treatment at the times indicated and counted with a haemocytometer. […] Therefore, for this study we only analyzed the effect of DIF-1 between 18 and 20 hours.
# [1] = test system: APP phosphorylation on residue T668; experiment: APP T668 phosphorylation by western blot; type: cell-based, human; conditions: CHO-7W and CHO-CAB; DAPT alone, or DAPT with DIF-1 (30 μM)
# Procedure: Next, whether or not DIF-1 treatment affected the degree of T668 phosphorylation was examined by western blot (FIG. 11). Briefly, effects of DIF-1 on APP T668 phosphorylation were compared between vehicle-treated control and 250 nM of DAPT identically in each cell line. Western analysis of 15 μg of total protein was probed overnight at 4° C. with anti-APP Cterminal antibody (C66-676-695) (1:5000) and then detected on film using ECL and HRP-conjugated secondary antibodies (1:5000). […] This band has also been detected in other CHO lines where APP expression is high (˜3 fold) and by different C-terminal APP antibodies (Ab8717-676-695; except 6E10 which recognizes the N-terminal residues 1-17 of the Aβ sequence. For FIG. 11A, cells were treated with DAPT, and DAPT+DIF then were probed with anti-APP antibody (C66). For FIG. 11B, CHO-7W cells were treated with DAPT, and DAPT+DIF, and then probed with polyclonal anti-P668 APP antibody (1:1000) overnight at 4° C. in 5% BSA. After washing, cells were probed with a rabbit HRP-conjugated secondary antibody (1:5000) in BSA for 1 hour at room temperature and signals were detected on film using ECL. FIG. 11C represents CHO-CAB cells and FIG. 11D represents H4 cells expressing APP^SW.
# APP = APP processing (mature APP, αCTF, βCTF) by western blot; type: cell-based, human
# Procedure: Total protein was collected in RIPA buffer plus protease inhibitors on ice and briefly sonicated. They lysate was centrifuged at 14,000 rpm for 15 minutes. […] After washing, the blots were probed with a polyclonal HRP-tagged secondary Ab (1:5000) for 1 hour at room temperature then visualized.
# A second possibility is that DIF-1 potentiates the activity of y-secretase and processing of αCTFs and βCTFs. To assess this latter possibility, we examined the effect of DIF-1 in the presence of DAPT, a potent γ-secretase inhibitor. Even numbers of CHO-7W cells were plated in 6-well dishes and allowed to grow overnight. The next day, the media was removed and replaced with control media (2 ml) or media containing DAPT, DIF-1 or DAPT and DIF-1. […] After washing, blots were probed with HRP-conjugated secondary antibodies (1:5000) for 1 hour at room temperature. […] It would appear that the mechanism of DIF-1 on APP metabolism is not likely to involve γ-secretase activity, but might impact on either BACE1 levels or activity.
# To evaluate this probability, we treated CHO-CAB cells that overexpress human APP^751 and human BACE1 with 30 μM of DIF-1. More specifically, even numbers of CHO-CAB cells were plated in 6-well dishes and allowed to grow overnight. The next day, the media was removed and replaced with control media (2 ml) or media containing DAPT, DIF-1 or DAPT and DIF-1. […] After washing, blots were probed with HRP-conjugated secondary antibodies (1:5000) for 1 hour at room temperature. Each treatment is shown above the blot. […] It would appear that DIF-1 has a greater effect on APP maturation in CHO-CAB cells. Longer exposures reveal the presence of mature APP bands in DIF-1 treated cells.
# Next dose-dependent effects of DIF-1 on APP processing were examined. Even numbers of CHO-CAB cells were plated in 6-well dishes and allowed to grow overnight. The next day, cells were treated overnight with either vehicle or increasing concentrations of DIF-1 (5-30 μM).
# human APLP2 = experiment: APLP2 CTF levels in CHO cells expressing APLP2; type: cell-based; conditions: co-treatment of DIF-1 and DAPT
# Description: To ascertain if DIF-1 indiscriminately perturbs the metabolism of type I transmembrane proteins we investigated the processing of other γ-secretase substrates.
# [2] = neutral pH; cited from earlier work
# cyclin D1 = experiment: Cyclin D1 level by western blot
# Procedure: Following treatment of each cell line with or without DIF-1 (1-30 μM) and/or other inhibitors, cells were lysed in cold RIPA buffer (20 mM Tris-HCl (pH 7.4) buffer containing 150 mM NaCl, 2 mM EDTA, 1% Nonidet® P-40 (NP-40), 50 mM NaF, 1 mM Na3VO4, 1 mM Na2MoO4, 10 mg/ml aprotinin, and 10 mg/ml leupeptin), supplemented with protease inhibitor tablets from Roche (Switzerland). Protein amounts were quantified in triplicate using the BCA assay from Pierce. Equal amounts of protein extracts were fractionated by sodium dodecyl sulfate polyacrylamide gel electrophoresis (SDS-PAGE) and transferred to polyvinylidene difluoride membranes. The membranes were blocked for 1 hour with 5% fat-free powdered milk or 5% BSA, incubated overnight at 4° C. with primary antibodies (1:1000 or 1:5000), washed with TTBS and then incubated at room temperature with appropriate peroxidase-conjugated secondary antibodies (1:5000). Blots were repeatedly washed with TTBS and target proteins were detected using an enhanced chemiluminescence (ECL) system (Amersham Pharmacia Biotech, New Jersey, USA) and XOMAT™ Kodak® film.
# Densitometry analysis of western blot data was performed on a PC computer using QuantityOne® software obtained from Bio-Rad® Laboratories, Inc. (California, USA). Loading variations between western blot lanes were normalized according to the GAPDH signal prior to any experimental quantification. Each western blot presented in the figures is representative of at least five independent experiments to ensure reproducibility of the results unless noted otherwise.
# CHO-CAB cells were treated with lithium chloride (10mM). […] To ensure that the results observed were due to proteasome inhibition, we assessed the effects of lactacystin and ALLN on cyclin D1 levels. […] The data represents that of three separate experiments.
smiles,measurement,setting,value
"CCCCCC(=O)c1c(O)c(Cl)c(OC)c(Cl)c1O [DIF-1, 1-[3,5-dichloro-2,6-dihydroxy-4-methoxyphenyl]-1-hexanone]",inhibition of growth,"CHO cells; 25 μM, 24 hours","minor, yet insignificant inhibition of growth"
same,decrease in proliferation compared to control and vehicle treated cells,"CHO cells; after 72 hours, all cell lines tested (e.g. CHO, N2a and SH-SY5Y)",70-75%
same,reversibility of antiproliferative effect,CHO cells; washing treated cells with PBS and fresh growth media,readily reversed
same,amount of T668 phosphorylated APP CTFs,[1],large reduction in the amount of T668 phosphorylated APP CTFs
same,APP maturation and αCTF and βCTF levels,"APP; CHO-7W, 30 μM DIF-1 alone",significant decrease in APP maturation and both αCTF and βCTF production; also recorded: significant decreases in both αCTF and βCTF levels
same,"αCTF and βCTF levels, simultaneous treatment with DAPT","APP; CHO-7W, 30 μM DIF-1 plus 250 nM DAPT","increased, but not to the level seen with DAPT alone"
same,effect on APP metabolism with BACE1 overexpression,"APP; CHO-CAB, 30 μM",did not repress the effects of DIF-1 on APP metabolism
same,dose dependence of αCTF and βCTF reduction,"APP; CHO-CAB, 5-30 μM",reduced both αCTFs and βCTFs in a dose-dependent manner
same,concentration required to have an effect on mature APP levels,"APP; CHO-CAB, 5-30 μM overnight",~20 µM
same,APLP2 CTF levels,human APLP2,decrease in APLP2 CTF levels
same,solubility,[2],soluble in both water and hexane
same,reduction of cyclin D1 level,"cyclin D1; 30 μM, 18-20 hours, CHO-CAB cells and mouse embryonic fibroblasts",~82.56±0.74%
same,effect on cyclin D1 level,"cyclin D1; CHO-7W, 30 μM DIF-1 or 250 nM DAPT",markedly decreased
same,"effect on cyclin D1 accumulation, co-treatment with lactacystin or ALLN",cyclin D1; CHO-CAB,inhibited the accumulation of cyclin D1
